Source: publication PMC11728000, “Antitumor Activity and Multi-Target Mechanism of Phenolic Schiff Bases Bearing Methanesulfonamide Fragments: Cell Cycle Analysis and a Molecular Modeling Study” (International Journal of Molecular Sciences, 2024)
Values joined by “and” are separate entries in the source; they are usually repeats but may differ in a detail not shown here. Equal entries are not always repeated.

How the values were obtained:
[1] = system: MOLT-4; test: NCI anticancer screening (SRB), Leukemia subpanel; assay type: cell-based, human; settings: for GI%: 10.0 µM in one dose
[2] = system: 786-0; test: NCI anticancer screening (SRB), Renal Cancer subpanel; assay type: cell-based, human; settings: for GI%: 10.0 µM in one dose
[3] = system: SNB-19; test: NCI anticancer screening (SRB), CNS Cancer subpanel; assay type: cell-based, human; settings: for GI%: 10.0 µM in one dose
[4] = system: MDA-MB-468; test: NCI anticancer screening (SRB), Breast Cancer subpanel; assay type: cell-based, human; settings: for GI%: 10.0 µM in one dose
[5] = system: Bcl-2; test: Apoptotic markers assay, Bcl-2 expression in MCF-7 cells; assay type: cell-based, human; settings: MCF-7 cells treated at IC50 concentrations; vs untreated control = 1
Experimental: (§1) We measured the apoptosis promoter Bax levels, the apoptosis inhibitor Bcl−2, and the apoptosis coordination enzymes caspase-8 and caspase-9 [32].
(§2) The apoptotic marker method was carried out using the reported procedure using MCF-7, the cancer cell line (Supplementary Materials). […]
photomultiplier voltage and for compensation setting adjustment to eliminate spectral overlap between the FL1 and the FL2 signals.
6. Cell cycle analysis
Breast carcinoma (MCF-7) cell was seeded at 2 × 10^5 cells/well density and incubated for 24 h in six-well plates. Foetal bovine serum (10%) was added, and the cells were incubated at 37 °C in an atmosphere of 5% CO2. The medium was replaced with 1% (v/v) DMSO containing 10.0 μM of […]
with 70% ethanol, rinsed with phosphate-buffered saline, and then stained with the DNA fluorochrome propidium iodide (PI) for 15 min at 37 °C. Then, samples were analyzed by flow cytometry using a FACSCalibur (Becton Dickinson). The cell cycle distributions were calculated using CellQuest software (Becton Dickinson).
(§3) 7. Caspase-8 and 9 activation assay
(§4) A breast carcinoma (MCF-7) cell line was obtained from ATCC. […]
allowed cells to grow at 37 °C, stimulated with the compounds to be tested for caspase-8 or caspase-9 and lysed with Cell Extraction Buffer. […]

[6] = system: MCF-7; test: NCI anticancer screening (SRB), Breast Cancer subpanel; assay type: cell-based, human; settings: for GI%: 10.0 µM in one dose
[7] = system: caspase-9; test: Apoptotic markers assay, caspase-9 level in MCF-7 cells; assay type: cell-based, human; settings: MCF-7 cells treated at IC50 concentrations; vs untreated control = 1
Experimental: as §1, §2, §3, §4
allowed cells to grow at 37 °C, stimulated with the compounds to be tested for caspase-8 or caspase-9 and lysed with Cell Extraction Buffer. Standard Diluent Buffer was used to dilute the lysate over the range of the assay and measure human active caspase-8 or caspase-9 content. (cells are Plated in a density of 1.2-1.8 X 10,000 cells/well in a volume of 100 µL complete growth medium + 100 µL of the tested compound per well in a 96-well plate for 24/48 h before the enzyme assay).
8. Evaluation of Bax and Bcl-2 expressions m RNA isolation was carried out using an RNeasy extraction kit, up to 1 X 107 cells. They were disrupted in Buffer RLT and homogenized. Ethanol was added to the lysate to promote the selective binding of RNA to the RNeasy membrane. Then, the sample was applied to the RNeasy

[8] = system: SR; test: NCI anticancer screening (SRB), Leukemia subpanel; assay type: cell-based, human; settings: for GI%: 10.0 µM in one dose
[9] = system: SN12C; test: NCI anticancer screening (SRB), Renal Cancer subpanel; assay type: cell-based, human; settings: for GI%: 10.0 µM in one dose
[10] = system: A498; test: as above; assay type: cell-based, human; settings: for GI%: 10.0 µM in one dose
[11] = system: MDA-MB-435; test: NCI anticancer screening (SRB), Melanoma subpanel; assay type: cell-based, human; settings: for GI%: 10.0 µM in one dose
[12] = system: NCI-H226; test: NCI anticancer screening (SRB), Non-Small Cell Lung Cancer subpanel; assay type: cell-based, human; settings: for GI%: 10.0 µM in one dose
[13] = system: IGROV1; test: NCI anticancer screening (SRB), Ovarian Cancer subpanel; assay type: cell-based, human; settings: for GI%: 10.0 µM in one dose
[14] = system: SK-OV-3; test: as above; assay type: cell-based, human; settings: for GI%: 10.0 µM in one dose
[15] = target: T1, COX-2 (Ovis aries, UniProt P79208); test: biochemical; settings: read-out: IC50, COX-2 Inhibition
T1 construct: purchased Cayman Chemical 560101
T1 sequence (P79208 17-603): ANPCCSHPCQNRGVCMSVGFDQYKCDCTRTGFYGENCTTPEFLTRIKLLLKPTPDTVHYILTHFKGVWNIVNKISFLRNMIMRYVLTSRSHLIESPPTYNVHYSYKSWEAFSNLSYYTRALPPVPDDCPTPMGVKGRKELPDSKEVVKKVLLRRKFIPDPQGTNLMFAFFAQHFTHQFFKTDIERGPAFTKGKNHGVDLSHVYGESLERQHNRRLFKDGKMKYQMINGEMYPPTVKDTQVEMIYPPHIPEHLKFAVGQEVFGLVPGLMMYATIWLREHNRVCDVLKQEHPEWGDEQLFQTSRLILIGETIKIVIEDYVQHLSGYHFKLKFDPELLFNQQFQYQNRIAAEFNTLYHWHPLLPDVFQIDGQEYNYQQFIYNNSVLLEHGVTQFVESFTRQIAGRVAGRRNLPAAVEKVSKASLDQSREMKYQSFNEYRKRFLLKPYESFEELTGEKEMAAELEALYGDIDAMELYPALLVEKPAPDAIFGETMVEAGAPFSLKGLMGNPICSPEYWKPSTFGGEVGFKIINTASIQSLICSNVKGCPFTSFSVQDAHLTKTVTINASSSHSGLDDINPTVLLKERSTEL
Experimental: the measured protein at the end of the drug treatment as compared to that at the beginning) indicating a net loss of cells following treatment was calculated from [(Ti − Tz)/Tz] […] = − 50.
Values were calculated for each of these three parameters if the activity level was reached; however, if the effect was not reached or exceeded, that parameter's value was expressed as more or less than the maximum or minimum concentration tested. The log GI50, log TGI, and log LC50 were then determined and defined as the mean of the logs of the individual GI50, TGI, and LC50 values. The lowest values are obtained with the most sensitive cell lines. The compound with […]
2. In vitro cytotoxic activity towards normal fibroblast (WI-38) cells Cell Lines were obtained from the American Type Culture Collection; cells were cultured using DMEM (Invitrogen/Life Technologies) supplemented with 10% FBS (Hyclone), ten ug/ml of insulin (Sigma), and 1% penicillin–streptomycin. Cultures were removed from the incubator into a laminar flow hood, reconstituted with 3 mL of balanced salt solution without phenol red and serum, and then added to an amount equal to 10% of the culture medium volume. […]
medium volume. The absorbance was measured Spectrophotometrically at a wavelength of 570 […]
The ability of the test compounds to inhibit COX-2 was determined using an enzyme immunoassay […]

[16] = system: UACC-62; test: NCI anticancer screening (SRB), Melanoma subpanel; assay type: cell-based, human; settings: for GI%: 10.0 µM in one dose
[17] = system: RXF 393; test: NCI anticancer screening (SRB), Renal Cancer subpanel; assay type: cell-based, human; settings: for GI%: 10.0 µM in one dose
[18] = system: NCI/ADR-RES; test: NCI anticancer screening (SRB), Ovarian Cancer subpanel; assay type: cell-based, human; settings: for GI%: 10.0 µM in one dose
[19] = system: NCI-H460; test: NCI anticancer screening (SRB), Non-Small Cell Lung Cancer subpanel; assay type: cell-based, human; settings: for GI%: 10.0 µM in one dose
[20] = system: HCT-15; test: NCI anticancer screening (SRB), Colon Cancer subpanel; assay type: cell-based, human; settings: for GI%: 10.0 µM in one dose
[21] = system: OVCAR-5; test: NCI anticancer screening (SRB), Ovarian Cancer subpanel; assay type: cell-based, human; settings: for GI%: 10.0 µM in one dose
[22] = system: HOP-62; test: NCI anticancer screening (SRB), Non-Small Cell Lung Cancer subpanel; assay type: cell-based, human; settings: for GI%: 10.0 µM in one dose
[23] = system: HOP-92; design: method as in https://dtp.cancer.gov/dtpstandard/dwindex/index.jsp; settings: ref https://dtp.cancer.gov/dtpstandard/dwindex/index.jsp; cited from earlier work
[24] = Homo sapiens, five concentrations

CS(=O)(=O)Nc1ccc(C(=O)NN=Cc2ccccc2O)cc1 [Compound 7]
GI% [1]: 50%
GI% [2]: 25%
GI% [3]: 32%
GI% [4]: 24%
Bcl2, Gene Expression (Fold Change) [5]: 0.201 fold change
GI% [6]: 21%
Casp9, Gene Expression (Fold Change) [7]: 2.99 fold change and 2.990 fold change
GI% [8]: 67%
GI% [9]: 23%
GI% [10]: 16%
GI% [11]: 24%
GI% [12]: 25%
GI% [13]: 25%
GI% [14]: 42%
IC50 [15]: 20900 ± 820 nM
GI% [16]: 35%
GI% [17]: 21%
GI% [18]: 41%
GI% [19]: 21%
GI% [20]: 67%
GI% [21]: 23%
GI% [22]: 61%

CCN(CC)c1ccc(C=NNC(=O)c2ccc(NS(C)(=O)=O)cc2)c(O)c1 [Compound 8]
GI% [1]: 90%
GI50 [1, 24]: 372 nM
GI% [2]: 98%
GI50 [2, 24]: 358 nM
GI% [3]: 65%
GI50 [3, 24]: 831 nM
GI% [4]: > 100%
GI50 [4, 24]: 335 nM
Bcl2, Gene Expression (Fold Change) [5]: 0.232 fold change
GI% [6]: 94%
GI50 ([6]; Homo sapiens, MCF7, five concentrations): 416 nM
Casp9, Gene Expression (Fold Change) [7]: 3.776 fold change
GI% [8]: 89%
GI50 [8, 24]: 141 nM
GI% [9]: 69%
GI50 [9, 24]: 603 nM
GI% [10]: 81%
GI50 [10, 24]: 2230 nM
GI% [11]: 71%
GI50 [11, 24]: 558 nM
GI% [12]: 61%
GI50 [12, 24]: 986 nM
GI% [13]: 80%
GI50 ([13]; Homo sapiens, IGROV-1, five concentrations): 544 nM
GI% [14]: 66%
GI50 [14, 24]: 450 nM
IC50 [15]: 12800 ± 510 nM
GI% [16]: 100%
GI50 [16, 24]: 375 nM
GI% [17]: > 100%
GI50 [17, 24]: 1040 nM
GI% [18]: 63%
GI50 [18, 24]: 2580 nM
GI% [19]: 97%
GI50 [19, 24]: 475 nM
GI% [20]: 80%
GI50 [20, 24]: 358 nM
GI% [21]: 54%
GI50 [21, 24]: 1890 nM
GI% [22]: 87%
GI50 [22, 24]: 189 nM

C#Cc1cccc(Nc2ncnc3cc(OCCOC)c(OCCOC)cc23)c1 [Erlotinib, erlotinib]
GI50 [23]: 3980 nM

COc1cc2ncnc(Nc3ccc(F)c(Cl)c3)c2cc1OCCCN1CCOCC1 [Gefitinib, gefitinib]
GI50 [23]: 316 nM
